Assay results from article PMC11391043, “Revealing the pH-dependent conformational changes in sol g 2.1 protein and potential ligands binding” (Scientific Reports, 2024).

How the values were obtained:
rSol g 2.1 protein [1] = target: T1, rSol g 2.1 protein (Solenopsis geminata, UniProt A0A9E7V488); test: Fluorescence competitive binding assay (FCBA), 1-NPN displacement; conditions: 2 µM rSol g 2.1, 5 µM 1-NPN
T1 sequence (A0A9E7V488 1-119): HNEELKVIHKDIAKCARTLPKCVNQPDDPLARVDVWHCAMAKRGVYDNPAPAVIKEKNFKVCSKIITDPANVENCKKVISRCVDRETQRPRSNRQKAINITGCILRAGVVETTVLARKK
From the text: (§1) The FCBA is that a fluorescence probe, N-phenyl-1-naphthylamine (1-NPN, purity > 98%, Sigma Aldrich) binds with the hydrophobic binding cavity of the protein, especially with Tryptophan amino acid (Trp). Then Trp will transfer energy to 1-NPN-probe, leading to an increased emission wavelength at approximately 400 nm with dose-dependent. Besides, when the aliquot of a ligand competitor, the ligand will be competed for 1-NPN-probe, resulting in a decreased emission wavelength at 400 nm. In this study, we performed the FCBA to determine the binding activity of Sol g 2.1 protein and the potential ligands. To examine affinity binding, a stock solution of 5 mM 1-NPN in methanol (HPLC grade) was gradually added to a solution containing 2 µM rSol g 2.1 in 50 mM Tris–HCl buffer (pH 5.5 and pH 7.4) with 1% tween 20. Final concentrations of 0, 0.5, 1, 2, 4, 6, 8, 10, and 12 µM of 1-NPN were achieved, with methanol serving as a negative control. Fluorescence intensity was measured using a spectrofluorometer (FluoroMax + SpectroFluorometer, Horiba Scientific) with excitation at 337 nm and emission scanning from 370 to 490 nm, at room temperature, in triplicate. The equilibrium dissociation (Kd) value was determined by plotting the fluorescence intensity at 400 nm against each 1-NPN concentration. The data were fitted to a one-site-specific binding model as follows: Y = Bmax*X/(Kd + X), where Y, X, Bmax, and Kd are the fluorescence intensity (counts/second), fluorescence probe concentration (μM), the maximum specific binding in the same units as Y, and the equilibrium dissociation constant in the same units as X.
The potential ligands, including (E)-β-Farnesene, α-Caryophyllene, and 1-Octen-3-ol (all, Tokyo Chemical Industry (TCI), Tokyo, Japan) were used as competitors in the FCBA. For this, a mixture of 2 µM rSol g 2.1 protein and 5 µM 1-NPN in 50 mM Tris–HCl buffer (pH 5.5 and pH 7.4) with 1% tween 20 was titrated with each ligand (5 mM stock in methanol) to final concentrations of 0, 2, 4, 6, 8, 10, 12, 14, 20, 24, 28, and 32 µM. The fluorescence intensity at 400 nm for each concentration was fitted to the One Site-Fit Ki model to determine the dissociation constant of competitor ligands (Ki) as follows: logEC50 = log (10^logKi*(1 + RadioligandNM/HotKdNM))[22],[57]. Here, RadioligandNM represents the concentration of fixed 1-NPN (nM), HotKdNM represents Kd (nM), and Ki represents the equilibrium dissociation constant (Molar). All experiments were conducted in triplicate and analyzed using GraphPad Prism 9 software (San Diego, CA, USA)[22].

rSol g 2.1 protein [2] = target: T1, rSol g 2.1 protein; test: Fluorescence binding assay of 1-NPN probe with rSol g 2.1 (Scatchard plots); conditions: 50 mM Tris-HCl, ± SEM, triplicate
From the text: as §1, with “To examine affinity binding, a stock solution of 5 mM 1-NPN in methanol (HPLC grade) was gradually added to a solution containing 2 µM rSol g 2.1 in 50 mM Tris–HCl buffer (pH 5.5 and pH 7.4) with 1% tween 20. Final concentrations of 0, 0.5, 1, 2, 4, 6, 8, 10, and 12 µM of 1-NPN were achieved, with methanol serving as a negative control.” left out

| SMILES | Ki (rSol g 2.1 protein [1]; pH 5.5) | Ki (rSol g 2.1 protein [1]; pH 7.4) | Kd (rSol g 2.1 protein [2]; pH 5.5) | Kd (rSol g 2.1 protein [2]; pH 7.4) |
| --- | --- | --- | --- | --- |
| C=CC(=C)CC/C=C(\C)CCC=C(C)C [(E)-β-Farnesene] | 1240 nM | 720 nM |  |  |
| c1ccc(Nc2cccc3ccccc23)cc1 [1-NPN, N-phenyl-1-naphthylamine] |  |  | 4830 ± 30 nM | 2330 ± 50 nM |
| C=CC(O)CCCCC (centres unmarked) [1-Octen-3-ol] | 5610 nM | 2000 nM |  |  |
| C/C1=C\CC/C(C)=C/CC(C)(C)/C=C/C1 [α-Caryophyllene] | 16000 nM | 1060 nM |  |  |
